Test [1] concerns HLA-A*2402-restricted cytotoxic T lymphocytes. Details: species or system transgenic mice expressing the HLA-A*2402 molecule (A24Tg). The following applies: mouse, in vivo.
The subject of test [2] is HLA-A*0201-restricted cytotoxic T lymphocytes. On the set-up: species or system mice expressing the HLA-A*0201 molecule (HHD mice). Conditions: mouse, in vivo.

In the case of RYTKTTYWW [PB1_430], in test [1], the CTL activity result was “high CTL activity” and the Specific killing was 96%.
With GMFNMLSTV [PB1_410], in test [2], the CTL activity result was “high CTL activity” and the Specific killing amounted to 87%.
Regarding LWILDRLFF [M2_40], in test [1], the CTL activity result is given as “low activity” and the Specific killing is given as 10%.
For SYLIRALTL [PB1_216] the same measures were “high CTL activity” and 22%.
The matching figures for TYQWIIRNW [PB2_549]: “high CTL activity” and 96%.
Take MYQKCCTLF [PB1_688]: in test [1], the CTL activity entry is on record as “high CTL activity” and the Specific killing was found to be 89%.
For YYLEKANKI [PA_130] the same measures were “high CTL activity” and 95%.
For the sequence SLLTEVETL [M2_2], the CTL activity result in test [1] was “low activity”.
For IFLARSALI [NP_257], in test [1], the CTL activity entry is listed as “low activity” and the Specific killing is 16%.
Turning to SFSFGGFTF [PB2_322], in test [1], the CTL activity result is given as “high CTL activity” and the Specific killing was found to be 38%.
For KTTPRPLRL [PA_262] the same measures were “high CTL activity” and 58%.
For the sequence CFNPMIVEL [PA_8], in test [1], the CTL activity entry is given as “low activity” and the Specific killing is on record as 10%.
EWFRNVLSI [PB1_331]: in test [1], the CTL activity entry was “low activity” and the Specific killing stood at 7%.
For SYINRTGTF [PB1_482], in test [1], the CTL activity result is on record as “high CTL activity” and the Specific killing stood at 56%.
For TYFEKVERL [PB2_117] the same measures were “low activity” and 13%.

Values taken from patent US8282938B2 (priority 2008, dated 2012).
